Reference: patent publication US9579303B2, “Compositions containing polysaccharides” (DSM IP ASSETS B.V., priority 2005, dated 2017)

Legend:
[1] = Granule size distribution by sieve analysis; assay type: physicochemical
[2] = Flowability: time for 100 g to flow through an 11-mm funnel orifice; assay type: physicochemical; details: 100 g through an 11-mm orifice of a funnel
Procedure: The flowability was determined by the time needed to have 100 g of genistein crystals or genistein granules flowing through an 11-mm orifice of a funnel.

SMILES: O=c1c(-c2ccc(O)cc2)coc2cc(O)cc(O)c12 [Genistein crystal, genistein]
- Granule Particle Size Distribution <150 μm ([1]; sieve fraction <150 μm): 7.2%
- Granule Particle Size Distribution >150 μm ([1]; sieve fraction >150 μm): 28.2%
- Granule Particle Size Distribution >250 μm ([1]; sieve fraction >250 μm): 50%
- Granule Particle Size Distribution >425 μm ([1]; sieve fraction >425 μm): 14.5%
- Granule Particle Size Distribution >600 μm ([1]; sieve fraction >600 μm): 0%
- Granule Particle Size Distribution >800 μm ([1]; sieve fraction >800 μm): 0%
- Granule Particle Size Distribution >850 μm ([1]; sieve fraction >850 μm): 0.1%
- Flowability [2]: No flow
